Reference: patent US20260209135A1, “METHOD OF FORTIFYING FERTILIZER WITH LIPO-CHITOOLIGOSACCHARIDE (LCO)” (priority 2022, published 2026)

Key:
Cabbage [1] = assay: Cabbage microplot trial, WSF fortified with LCO (Example 1); type: in vivo, Cabbage (Enza zaden variety); details: average, vs control (only WSF)
Method: Cabbage seedling (Enza zaden variety) were transplanted on 16 Oct. 2020 and the experiment was completed by end of December 2020. Experiment was conducted in 3*3 microplots in 9 replications for treatment and control, microplots were distributed in a completed random block experimental design. Treatment was imposed by fertigation at 3 times point with doses divided in to 22, 39 and 39% respectively (Table 6). Plants were grown by following the standard package of practices developed by the university of Agricultural Science Bangalore. [table] Treatment was in a complete random block design, with 9 replications per treatment. Following parameter/observation was recorded: • 1. Plant number per plot • 2. Fruit weight per plot • 3. Fruit weight per plant • 4. Vertical circumference • 5. Radial circumference Data were analysed with JMP software by comparing means using all pairs Tukey HSD. Error bars shown in graphs are SD. Bar graphs represent the mean. Different alphabet indicates significant difference between the treatment.

Capsicum = Capsicum net house trial, WSF fortified with LCO (Example 2); type: in vivo, Capsicum (Diana variety); details: fortification of WSF with LCO vs WSF only
[2] = tested on: White French Beans seedlings; assay: Seedling bioassay in tubes, WSF (19:19:19) fortified with LCO (Example 3); type: in vivo; details: 10 days
Method: [table] Locally available beans variety were used for the study. Experiment was conducted in 50 ml falcon tube filled with soilrite which acts as growing substrate. Treatment solution as given in the table were prepared in demineralised water and 10 ml of respective solution were applied to each tube after sowing (2.5 cm depth). Fortified, unfortified WSF and LCO were tested at 2 doses along with absolute control. Subsequently, the seedlings were maintained under […] (200 […], 12 hrs light and dark), ambient temperature of 25 degree Celsius. The tubes were incubated for 10 days and irrigated with water as and when required. After 10 days, the experiment was terminated and the plants were phenotyped for recording the traits vz Hypocotyl length, epicotyl length, shoot length and root length.

Cabbage [3] = assay: Cabbage microplot trial, granular fertilizer fortified with LCO (Example 4); type: in vivo, Cabbage (Enza zaden variety)
Corn [4] = assay: Corn microplot trial, granular fertilizer fortified with LCO (Example 5); type: in vivo, Maize; details: LCO at 22.5 ml per bag of GF, over control
Method: Maize seeds were sown directly to microplot on 29 Oct. 2020 and the experiment was completed by third week of January 2021. Experiment was conducted in 3*3 microplots in 7 replications for treatment and 6 replications for control, microplots were distributed in a completed random block experimental design. Treatment was imposed by fertigation at 2 times point with doses divided in to 50% each first at time of transplanting and second one at 40 days after transplanting (Table 11). Plants were grown by following the standard package of practices developed by the university of Agricultural Science Bangalore, for further details information have a look at the crop calendar (Table 11). [table] Treatment was in a complete random block design, with 7 replications per treatment and 6 replication per control. Following parameter/observation WAS recorded: • 1. Plant number per plot • 2. Plant height • 3. Chlorophyll content • 4. Stem girth • 5. Cob number • 6. Cob dry weight • 7. Yield/grain weight per plot or plant Data were analysed with JMP software by comparing means using all pairs Tukey HSD. Error bars shown in graphs are SD. Bar graphs represent the mean. Different alphabet indicates significant difference between the treatment. […] FIG. 8: Plant height were measured at three different time point viz 33, 53 and 138 days after sowing, data represented here are means and error bar represent standard deviation. NS denotes no significant difference between the treatment.

Corn [5] = assay: Corn pot study, LCO and urease inhibitor fortified urea and WSF (Example 6); type: in vivo; details: urea study
Method: NBPT (N-(n-butyl) thiophosphoric triamide) was suspended in propylene glycol (PG) and dimethyl sulphoxide (DMSO) in the ratio of 20:50:30. In the current experiment two different doses of NBPT was fortified to the fertilizers, low dose consisting of 400 ppm and high dose 800 ppm was fortified per Kg of fertilizer.
The fortifying mixture consists of 0.7 ml of LCO (1.90e-5) and 2 ml of NBPT (400 ppm) was fortified to 1 Kg of fertilizer. Whereas another fortifying mixture consists of 0.7 ml of LCO (1.90e-5) and 4 ml of NBPT (800 ppm) was fortified to 1 Kg of fertilizer. After fortification samples were taken for conducting pot trails.
A pot study was conducted for evaluating LCO and Urease inhibitor fortified Urea and WSF on an experimental crop. Corn was selected as a subject crop for the pot study. The experiment consists of 13 treatments as listed below. The pot study is done in pots of 2 Kg soil capacity. The experiment duration is 20 days.
• 1. Untreated Control • 2. WSF • 3. WSF+LCO • 4. WSF+LCO+UI (Low-400 ppm) • 5. […]
From the onset of the experiment plant height and chlorophyll was measured at every 10th, 15th, and 20th day after sowing. Plant height and dry biomass of leaves and root were measured manually using scales, whereas chlorophyll was measured using chlorophyll meter. Leaf area was calculated based on the dry weight method, by developing a dry-weight weight versus leaf area curve for corn leaf samples of known area.
Available nitrogen from the soil was estimated from the soil samples using wet aggregate analysis method of estimation. […] The available nitrogen is expressed as kg/ha.
Total nitrogen as percent was determined from the dried plant samples using Kjeldahl method of estimation. The total nitrogen in plant is expressed as percentage. Nitrogen uptake was calculated by multiplying the shoot biomass with the nutrient concentration. Nitrogen use efficiency (NUE) is determined as the percent of the applied nitrogen that was taken up by the plants.
From the onset of the experiment plant height and chlorophyll was measured every 5 days interval starting from 10th DAS. […]

[6] = tested on: finger millet (Eleusine coracana) seedlings; assay: Ragi seedlings treated with LCO: root hairs and root length; type: in vivo
Source text: FIG. 27 represents a graph showing number of root hairs in seedlings of ragi @ 3 DAS: untreated control (UTC) and treated with LCO.
(§1) FIG. 29 represents a graph showing root length measured @ 4 DAS in ragi and rice seedlings: untreated control and treated with LCO.

[7] = tested on: Beans (Phaseolus vulgaris L); assay: Beans seedlings treated with LCO: root length; type: in vivo; details: vs control seedlings without LCO, FIG. 28
Source text: (§2) FIG. 28 represents a graph showing root length measured @ 10 DAS in beans, horse gram and green gram seedlings: untreated control and treated with LCO.

[8] = tested on: Horse gram (Macrotyloma uniflorum); assay: Horse gram seedlings treated with LCO: root length; type: in vivo; details: vs control seedlings without LCO, FIG. 28
Source text: as §2

[9] = tested on: Green gram (Vigna radiata); assay: Green gram seedlings treated with LCO: root length; type: in vivo; details: vs control seedlings without LCO, FIG. 28
Source text: as §2

Rice (Oryza sativa) = assay: Rice seedlings treated with LCO: root length; type: in vivo; details: vs control seedlings without LCO, FIG. 29
Source text: as §1

Cabbage [10] = assay: Cabbage field study, bulk granular fertilizer with LCO (Example 7); type: in vivo; details: bulk fertilizer combined with LCO compared to fertilizer alone
Method: The field experiment was conducted at an agricultural farm in Bangalore in Rabi season of 2020. The study was conducted in randomized complete block design with 7 treatments and 7 replications per treatment with each plot measuring approximately 9 m^2 in area (Table-12 & 13). Cabbage seedlings of a popular variety was used for the trial. Different grades of bulk fertilizers were available in market generally sold in 50 kg packages. The N:P:K-19:19:19 grade bulk fertilizer was used for the current study. Treatments of LCO fortified bulk fertilizer with 3 doses of LCO 11.25 ml, 22.5 ml, and 33.75 ml were formulated per 50 kg bag of fertilizer. The application dose was calculated based on the crop and standard fertilizer recommendation to the select crop. About 50% of calculated quantity of fertilizers were applied to the crop on a per plot basis as basal application at the time of planting and rest of the quantity of each treatment was applied at 40 days after transplanting (DAT). [table] […] The yield per plot was measured by weighing all the heads harvested from each plot. The vertical and horizontal diameter of the head was measured using a measuring tape and the volume of each cabbage head was calculated by the following formula V=4/3·π·(a)^2·b • Where, • V=Volume of the head • a=Horizontal diameter of the head • b=Vertical diameter of the head

Corn [11] = assay: Corn field study, bulk granular fertilizer with LCO (Example 8); type: in vivo; details: bulk fertilizer combined with LCO compared to fertilizer alone
Method: The field experiment was conducted at an agricultural farm in Bangalore in Rabi season of 2020. The study was conducted as randomized complete block design with 7 treatments with 9 replications and each plot measured about 9 m^2 in area. Hybrid corn seeds of a popular brand was used for the trial. Different grades of Bulk fertilizers are available in market generally sold in 50 kg packages. The N:P:K-19:19:19 grade bulk fertilizer was used for the current study. Bulk fertilizer was combined with 3 doses of LCO at the rate of 11.25 ml, 22.5 ml, and 33.75 ml per 50 kg bag of fertilizer. The application dose was calculated based on the crop and standard fertilizer recommendation to the select crop. About 50% quantity of the treatments were applied to the crop as basal application at the time of planting and rest of the quantity for each treatment was applied at 40 DAS. [table] [table] The trial was harvested in January 2021, when the cobs were fully matured. The yield parameters such as number of cobs per plot and cob yield per plot were recorded. The number of cobs per plot was normalized based on plant density per plot. The cobs of each plot were threshed separately and grain weight per plot was recorded and interpreted as Kg per plot normalized to number of plants per plot.

[12] = at low pH; cited from earlier work

CCCCCC/C=C\CCCCCCCCCC(=O)N[C@H]1[C@H](O[C@H]2[C@H](O)[C@@H](NC(C)=O)[C@H](O[C@H]3[C@@H](O)[C@@H](NC(C)=O)[C@H](O[C@H]4[C@H](O)[C@@H](NC(C)=O)[C@H](O[C@H]([C@H](O)[C@H](C=O)NC(C)=O)[C@H](O)CO)O[C@@H]4CO)O[C@@H]3O)O[C@@H]2CO)O[C@H](CO)[C@@H](O)[C@@H]1O [LCO, Lipo-chitooligosaccharide]
increase in yield (Cabbage [1]; cabbage yield (kg/plot), LCO with or without proxel): 7%
increase in circumference (Cabbage [1]; cabbage, WSF 19:19:19 with LCO with or without proxel): 2%
capsicum yield, result in words (Capsicum): increase in yield, even though there is no statistically significant difference
Epicotyl length ([2]; concentration 8.75E−12 %): 1.75 cm
Hypocotyl length ([2]; concentration 8.75E−12 %): 9 cm
Root length ([2]; concentration 8.75E−12 %): 12.12 cm
Shoot length (hypocotyl + Epicotyl length) ([2]; concentration 8.75E−12 %): 10.77 cm
Epicotyl length ([2]; concentration 8.75E−14 %): 1.87 cm
Hypocotyl length ([2]; concentration 8.75E−14 %): 8.3 cm
Root length ([2]; concentration 8.75E−14 %): 13.41 cm
Shoot length (hypocotyl + Epicotyl length) ([2]; concentration 8.75E−14 %): 10.26 cm
cabbage circumference, result in words (Cabbage [3]; GF fortified with LCO vs control (only GF)): marginal increase in circumference of cabbage heads
increase in circumference (Cabbage [3]; cabbage, GF 19:19:19 with LCO with or without proxel, average, vs control (only GF)): 0.4%
increase in cob weight per plot (Corn [4]): ≤ 10
increase in grain weight per plot (Corn [4]): ≤ 9
increase in number of cobs per plant (Corn [4]): ≤ 18%
total nitrogen (leaf nitrogen content), result in words (Corn [5]; 20 days old corn seedlings, Kjeldahl, FIG. 22): much higher than urea+UI at 400 ppm and equal to urea+UI at 800 ppm
leaf dry weight, result in words (Corn [5]; corn seedlings, 20 DAS, FIG. 18): better than WSF alone
leaf area, result in words (Corn [5]; corn seedlings, 20 DAS, FIG. 20): better than WSF alone
number of root hairs, result in words ([6]; 3 days after treatment, vs untreated control, FIG. 27): increase root hairs
root length, result in words ([6]; vs control seedlings without LCO, FIG. 29): increases the length of roots
root length, result in words [7]: increases the length of roots
root length, result in words [8]: increases the length of roots
root length, result in words [9]: increases the length of roots
root length, result in words (Rice (Oryza sativa)): increases the length of roots
average volume of cabbage heads, result in words (Cabbage [10]): enhanced average volume of cabbage heads
average number of cobs per plot, result in words (Corn [11]): enhanced
grain yield per plot, result in words (Corn [11]): enhanced

CCCCNP(N)(N)=S [NBPT, N-(n-butyl) thiophosphoric triamide]
time within which decayed [12]: ≤ 24 h
